According to patent US12508275B2, “Neomycin based compounds, and pharmaceutical use thereof” (UNIVERSITÉ COTE D'AZUR, priority 2019, dated 2025):

Tests used:
[1] = test system: GB5; assay: XTT toxicity assay on GSC (GB5); format: cell-based
Protocol: FIG. 4: Determination of compound toxicity on GSC and normal human cells. (A) GB5 were incubated with growing concentration of Compounds 9a-b and 18a. (B) human normal neural stem cell (NNSC), human normal kidney cells (NHEK), human normal hepatocytes (HEPRG) and (C) human endothelial cells (HUVEC) were treated with growing concentration of Compound 9a. 7 days later, the cells were subjected to an XTT assays as described in the method section. The results are the meaning of at least two separate experiments. Cell death was confirmed by trypan blue staining (not shown).
II—XTT assay: TG6 and GB5 were seeded at 2000 cells/well in 96 wells plate in NS34+ alone or containing 10, 20, 25, 50 and 100 uM of Compounds 9a-b and 18a-b. Cultures were incubated 4 days and the cell proliferation was evaluated as indicated by the manufacturer.
V—Toxicity tests: NNSC, GB5, TG6, HEK293, and HepaRG, HUVEC were seeded at 2000 cells/well in 96 wells plate in their respective culture mediums alone or containing growing concentration from 10 to 500 uM of Compounds 9a-b. Cultures were incubated 4 days and the cellular toxicity has been evaluated by XTT assays. Cell viability has been also assessed by counting living and dead cells with trypan blue staining.
XTT assays allows, through cell metabolism measurement, to determine a cytotoxic/cytostatic effects. Compounds 9a-b and 18a were tested for their eventual toxicity by XTT assays as described in the material and method section. At the working concentrations 10 to 25 uM, the compounds are not toxic for GSC (FIG. 4A). […] Compound 9a toxicity was further tested on normal neural stem cells (NNSC), human kidney (NHEK), human hepatocytes (HEPRG) and human endothelial cells (HUVEC). The compound is not toxic on NNSC, NHEK, HEPRG and HUVEC cells when used between 10 to 50 uM. At 100 uM and above, Compound 9a was toxic (FIG. 4).

[2] = test system: NESTIN expression in GB5; assay: NESTIN expression by immunofluorescence in GB5; format: cell-based, human; settings: GB5, seven days, growing concentrations
Protocol: (§1) FIG. 2: Compounds 9a-b and 18a-b effect on stemness marker expression, clonal expansion and mitosis in GB5 cells. (A) NESTIN expression was assessed by immunofluorescence in GB5 treated with increasing amount of Compounds 9a-b and 18a. The number of NESTIN positive cells was counted for each treatment and express as percentage of the control (100%). The results are the meaning of at least two separate experiments. […] (C) Clonal expansion analysis was performed with GB5 cells as described in the material and method section. Two and three weeks later, the number of spheroids is counted and reported as percentage of the initial number of cells in the well. The results are the meaning of a minimum of two separate experiments. (D) The number of mitosis in the culture was determined by the detection of the number of cells positive for histone H3 phosphorylated on ser-10 (H3-ser10). H3-ser10 expression was assessed by immunofluorescence in GB5 treated with increasing amount of Compounds 9a-b and 18a. The number of positive cells was counted for each treatment and express as percentage of the control (100%). The results are the meaning of at least two separate experiments.
(§2) III—Immunofluorescence assay: TG6 and GB5 were seeded at 2000 cells/well in 24 wells plate in NS34+ alone or containing 5, 7.5, 10, 12.5, 15, 20 and 25 uM of Compounds 9a-b and 18a-b. Cultures were incubated 4 days and the cells were fixed with 4% paraformaldehyde for 10 min at room temperature then washed with PBS. Cells were then incubated with ammonium chloride at 20 mM 5 min at room temperature and washed 5 times with PBS. Blocking and hybridization were realized in PBS containing 10% FCS and 0.1% Triton X100. Anti-Nestin and anti-H3Phospho serine 10 antibodies were incubated 2 hours at room temperature then washed with PBS. Fluorescence coupled secondary antibodies and Hoechst 33342 nuclei counterstaining reagent were hybridized one hour at room temperature. Cells were mounted with anti-fading agent then imaged, counted and quantified using fluorescent microscopy (TiE Nikon) and NiS software (Nikon).
Patient derived GSC (GB5) have been treated during seven days, with growing concentrations of compounds that have been capable of inducing changes of GSC morphology. To assess the consequence on stemness maintenance, we observed, by immunofluorescence, the expression of stemness and progenitor cells such as the NESTIN protein. […] The strongest effect has been obtained with Compounds 9a treatment (IC50=10 uM).

[3] = test system: Patient derived GSC (GB5); assay: Effect of compound treatment on GSC phenotype (adhesion, morphology), GB5; format: cell-based, human; settings: three days
Text: FIG. 1: phase contrast images of GB5 morphology untreated (CTL DMSO) or treated with the indicated compound (“Cpd” denotes compound) at the indicated concentration. Control cells grow as non-adherent spheroids composed of numerous GSC. When differentiated the cells become adherent and spread on the culture dish.
B—Cell culture: Patient-derived cells GB5 were isolated from surgical resection of human primary GBM provided by the department of neurosurgery of the University Hospital of Nice. TG6 (patient-derived cell from primary GBM) and HNNSC25 (Human Normal Neural Stem Cells) have been provided by Dr Hervé Chneiweiss, University of Pierre and Marie Curie, Paris. The resulting primary cultures (GB5, TG6, HNNSC25) were grown in NS34+ medium containing EGF and bFGF (DMEM-F12 1/1 ratio, 10 mM glutamine, 10 mM Hepes, 0.025% Sodium bicarbonate, N2, G5, and B27).
Patient derived GSC (GB5) were treated with growing concentration of Compounds 9a-b and 18a-b (10 to 100 uM) during three days). […] Similar results have been obtained with TG6.

[4] = test system: GB5 cells; assay: Mitosis: cells positive for histone H3 phosphorylated on ser-10, GB5; format: cell-based, human; settings: GB5, H3-ser10 positive cells
Protocol: as §1, §2
(§3) It was further investigated the effects of selected compounds on GSC clonal expansion as well as their capacity of mitosis (FIGS. 2B and C). Compounds 9a-b and 18a treatment altered GSC clonal expansion and mitosis. The most efficient inhibition of clonal expansion was provided by Compound 9a treatment (IC50<10 uM) while both Compounds 9a-b were the most efficient for mitosis inhibition (IC50<10 uM) (FIGS. 2C and D).

[5] = test system: GB5 cells; assay: Clonal expansion (clonal proliferation) of GB5; format: cell-based, human; settings: GB5, spheroids counted after two and three weeks
Protocol: as §1
Clonal proliferation: TG6 and GB5 were seeded at 10 cells/well in 96 wells plate in NS34+ medium alone or containing growing concentration of Compounds 9a-b and 18a-b. Immediately after seeding, the real number of cells in the well was determined by direct count. Two and three weeks later, the resulting number of spheroids in each well was evaluated by a direct count. The % of clonal efficiency was calculated in dividing […].
as §3

[6] = test system: GB5 cells; assay: TMZ assay: GSC sensitivity to Temozolomide (XTT); format: cell-based, human; settings: three days; for increase of TMZ sensitivity: GB5, TMZ 400 uM plus compound at 10 uM; for increase of TMZ sensitivity, maximal effect: GB5, TMZ 400 uM plus compound at 50 uM
Protocol: FIG. 5: Sensitivity to TMZ was assessed by comparing the percentage of dead cells between TMZ treated GB5 and TMZ treated GB5 in combination with Compound 9a. GB5 cells have been treated with 400 uM TMZ alone or in combination with growing concentrations of Compounds 9a-b and 18b. The results are the meaning of at least two separate experiments.
IV—TMZ assay: TG6 and GB5 were seeded at 2000 cells/well in 96 wells plate in NS34+ or treated with medium containing 400 uM of TMZ alone or mixed with 10, 25 and 50 uM of Compounds 9a-b and 18a-b. Cultures were incubated 4 days and the cell viability has been evaluated by XTT assays and a count of living and dead cells with trypan blue staining.
Temozolomide is the chemotherapy of reference for GBM treatment. In order to assess whether the compounds might sensitize GSC to TMZ, TMZ (400 uM) pretreated GB5 cells were incubated with 10, 25 and 50 uM of Compounds 9a-b and 18b. Three days later the experiment is stop and the cells were subjected to an XTT assays. […] Cell toxicity was confirmed by trypan blue staining.

| Compound | toxicity for GSC (XTT) ([1]; GB5, 50 uM and higher) | toxicity for GSC (XTT) ([1]; GB5, 10 to 25 uM) | NESTIN expression [2] | adhesion and changes in GSC morphology ([3]; GB5, 10 uM) | GSC mitosis [4] | GSC clonal expansion [5] | IC50 ([4]; Homo sapiens, read-out: mitosis inhibition IC50) [µM] | increase of TMZ sensitivity [6] [fold] | increase of TMZ sensitivity, maximal effect [6] [fold] | adhesion and changes in GSC morphology ([3]; GB5, 25 uM) |
| --- | --- | --- | --- | --- | --- | --- | --- | --- | --- | --- |
| NCCCCNCCCNC(=O)c1csc(-c2csc(CCNC(=O)CCC(=O)NCC3OC(OC4C(O)C(N)CC(N)C4OC4OC(CN)C(O)C(O)C4N)C(O)C3OC3OC(CN)C(O)C(O)C3N)n2)n1 (stereo not drawn) [Compound 18a, 4-((2-(4-((3-((4-aminobutyl)amino)propyl)carbamoyl)-[2,4′-bithiazol]-2′-yl)ethyl)amino)-4-oxobutanoic-amido-neomycin] | relative toxicity | not toxic | drop in NESTIN expression | induced adhesion and changes in GSC morphology | altered | altered |  |  |  |  |
| NCC1OC(OC2C(Cn3cc(CCC(=O)NCCc4nc(-c5nc(C(=O)NCCCCN=C(N)N)cs5)cs4)nn3)OC(OC3C(O)C(N)CC(N)C3OC3OC(CN)C(O)C(O)C3N)C2O)C(N)C(O)C1O (stereo not drawn) [Compound 9b, N-(4-((Diaminomethylene)amino)butyl)-2′-(2-(3-(1-methyl-1H-1,2,3-triazol-4-yl)propanamido)ethyl)-[2,4′-bithiazole]-4-carboxamide-neomycin] | relative toxicity | not toxic | drop in NESTIN expression | induced adhesion and changes in GSC morphology | altered | altered | < 10 | 1.8 | 2.8 |  |
| NCCCNC(=O)c1csc(-c2csc(CCNC(=O)CCC(=O)NCC3OC(OC4C(O)C(N)CC(N)C4OC4OC(CN)C(O)C(O)C4N)C(O)C3OC3OC(CN)C(O)C(O)C3N)n2)n1 (stereo not drawn) [Compound 18b, 4-((2-(4-((3-aminopropyl)carbamoyl)-[2,4′-bithiazol]-2′-yl)ethyl)amino)-4-oxobutanoic-amido-neomycin] |  |  |  |  |  |  |  | 1.7 | 3 | induced adhesion and changes in GSC morphology |
